Assay results from US6544551B1, “Solid pharmaceutical compositions containing hexedecylphosphocholine (miltefosine) for oral administration in the treatment of leishmaniasis” (priority 1998, dated 2003).

What was measured:
[1] = Clinical study of oral miltefosine capsules in human visceral leishmaniasis: tolerability and safety; format: in vivo
Procedure: (§1) Miltefosine (MILT, hexadecylphosphocholine, ASTA Medica), an antineoplastic alkylphospholipid, is active in experimental visceral leishmaniasis (VL). To test oral MILT in human VL, 30 male Indian patients from Bihar (age>14 years; 18 of the 30 were antimony (Sb) failures) with splenic aspirate-positive VL were treated in 6 groups of 5 patients each (Groups A-F) for 28 days with escalating doses by oral administration of capsules according to example 1: (A) 50 mg once qod (qod=[…]), (B) 50 mg BID god (BID=twice per day), and then daily using 50 mg (C) BID (100 mg/d), (D) TID (150 mg/d), (E) QID (200 mg/d), and (F) 5×per day (250 mg/d).

[2] = system: experimental visceral leishmaniasis (VL); conditions: in vivo; cited from earlier work
[3] = system: visceral leishmaniasis (VL); experiment: Clinical study of oral miltefosine capsules in human visceral leishmaniasis: efficacy; format: in vivo
Procedure: as §1

[4] = Hygroscopicity (incorporation of water molecules); format: physicochemical
[5] = Day 14 results in 30 patients, Groups A-F together, oral
[6] = Group A: 50 mg once qod, 28 days, oral
[7] = Group B: 50 mg BID qod, 28 days, oral
[8] = Group D: 50 mg TID (150 mg/d), 28 days, oral

CCCCCCCCCCCCCCCCOP(=O)([O-])OCC[N+](C)(C)C [Miltefosine, hexadecylphosphocholine]
patients died ([1]; Group F (250 mg/d), died on day 21, drug stopped on day 19, severe vomiting and diarrhea, dehydration, renal failure): 1 patient | hematologic toxicity ([1]; human, in vivo): no hematologic toxicity | mild vomiting or diarrhea lasting 3-7 days ([1]; human, in vivo): most patients | patients removed because of vomiting, Group F ([1]; male, human, in vivo, 28 days): 3 | maximum tolerated daily dose ([1]; oral, human VL patients, 28 days): 200 mg/day | activity in experimental visceral leishmaniasis [2]: active | patients afebrile by day 7 ([3]; 30 male Indian VL patients, Groups A-F together, oral capsules according to example 1, 28 days, day 7): 16 patients | all 3 responses (afebrile, decreased spleen size, negative aspirate) = apparent cures, day 14 ([3]; Day 14, Groups A-F together, oral): 21 of 30 | afebrile, day 14 [3, 5]: 25 patients | decreased spleen size, day 14 [3, 5]: 25 patients | negative spleenic aspirates (apparent parasitologic cure), day 14 [3, 5]: 28 patients | apparent cures on day 28 (percent of patients) ([3]; Day 28, 29 patients): 100% | apparent cures on day 28 ([3]; Day 28, Groups A-F together, including 4 patients with less than 10 days of therapy): 29 of 29 | cure (no relapse, parasite-free bone marrow aspirate) within 6 months, Group A [3, 6]: 2/5 | relapsed within 6 months, Group A [3, 6]: 3/5 | cure (no relapse, parasite-free bone marrow aspirate) within 6 months, Group B [3, 7]: 2/5 | relapsed within 6 months, Group B [3, 7]: 3/5 | cure (no relapse, parasite-free bone marrow aspirate) within 6 months, Group C ([3]; Group C: 50 mg BID (100 mg/d), 28 days, oral): 5/5 | cure (no relapse, parasite-free bone marrow aspirate) within 6 months, Group D [3, 8]: 4/5 | relapsed within 6 months, Group D [3, 8]: 1/5 | cure (no relapse, parasite-free bone marrow aspirate) within 6 months, Group E ([3]; Group E: 50 mg QID (200 mg/d), 28 days, oral): 5/5 | apparent cures relapsed within 6 months ([3]; all groups, within 6 months): 7 of 29 | apparent cure (no relapse, parasite-free bone marrow aspirate) within 6 months ([3]; all groups, within 6 months, 1 patient still in follow up): 21 of 26 | patients with definite cure who had failed prior therapy with antimony ([3]; of the first 21 patients with definite cure): 14 patients | increase in weight by incorporation of water molecules [4]: up to 30%
